Experimental data published in US10357484B2, “Heterocyclic compound” (Takeda Pharmaceutical Company Limited, priority 2015, dated 2019).

Assays:
Type in all cases: biochemical
HDAC6 enzyme = molecular target: T1, HDAC6 enzyme (Homo sapiens, UniProt Q9UBN7); assay: HDAC6 enzyme inhibitory assay (HDAC-Glo I/II Assay kit); conditions: 1 μM test compound; wells without enzyme = 100% inhibition; read-out: HDAC6 inhibitory rate (%) (1 μM)
T1 construct: transducing full length HDAC1 and HDAC6 genes into Sf-9 insect cells; GST; purchased SignalChem; host or cells: Sf-9 insect cells
T1 sequence (Q9UBN7 1-1215): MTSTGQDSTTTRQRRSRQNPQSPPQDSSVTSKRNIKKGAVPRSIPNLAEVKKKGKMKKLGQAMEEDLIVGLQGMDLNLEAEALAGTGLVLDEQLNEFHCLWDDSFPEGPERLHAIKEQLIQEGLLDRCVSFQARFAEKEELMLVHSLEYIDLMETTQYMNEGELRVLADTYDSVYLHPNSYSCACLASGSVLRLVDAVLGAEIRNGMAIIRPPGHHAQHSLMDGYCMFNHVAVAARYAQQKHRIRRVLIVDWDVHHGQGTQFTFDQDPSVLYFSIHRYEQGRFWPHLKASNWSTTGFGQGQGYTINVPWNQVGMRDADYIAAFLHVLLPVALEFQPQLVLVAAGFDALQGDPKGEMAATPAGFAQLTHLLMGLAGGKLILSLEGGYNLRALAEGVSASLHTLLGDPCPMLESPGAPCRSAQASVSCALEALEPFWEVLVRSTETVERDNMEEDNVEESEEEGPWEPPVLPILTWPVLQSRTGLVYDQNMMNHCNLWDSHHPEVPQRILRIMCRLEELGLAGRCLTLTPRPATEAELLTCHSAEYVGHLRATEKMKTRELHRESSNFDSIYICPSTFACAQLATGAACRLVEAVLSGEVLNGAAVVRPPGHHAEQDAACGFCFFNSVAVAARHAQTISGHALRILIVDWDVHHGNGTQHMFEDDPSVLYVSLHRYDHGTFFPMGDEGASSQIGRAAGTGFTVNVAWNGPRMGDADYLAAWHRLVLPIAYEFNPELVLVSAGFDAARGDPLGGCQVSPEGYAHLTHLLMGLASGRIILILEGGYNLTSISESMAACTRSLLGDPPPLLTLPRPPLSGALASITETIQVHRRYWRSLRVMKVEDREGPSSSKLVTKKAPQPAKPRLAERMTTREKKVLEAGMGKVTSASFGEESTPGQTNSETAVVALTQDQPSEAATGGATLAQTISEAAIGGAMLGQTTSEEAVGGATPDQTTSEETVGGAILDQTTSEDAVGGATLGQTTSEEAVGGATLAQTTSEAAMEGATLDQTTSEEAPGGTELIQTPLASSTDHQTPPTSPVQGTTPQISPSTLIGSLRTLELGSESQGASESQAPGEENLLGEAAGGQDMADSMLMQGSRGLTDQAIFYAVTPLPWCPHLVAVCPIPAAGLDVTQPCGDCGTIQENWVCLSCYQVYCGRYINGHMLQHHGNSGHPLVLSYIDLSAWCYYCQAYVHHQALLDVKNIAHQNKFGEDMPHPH
Protocol: (§1) HDAC1/6 Enzyme Inhibitory Assay
(§2) HDAC1 enzyme and HDAC6 enzyme each prepared by transducing full length HDAC1 and HDAC6 genes into Sf-9 insect cells and purifying by GST affinity column were purchased from SignalChem. Using these enzymes, HDAC1 and/or HDAC6 enzyme inhibitory activities of the compound of the present invention were evaluated. Enzymes were used after preserved at −70° C. HDAC1 or HDAC6 enzyme inhibitory activity of the compound of the present invention was measured using HDAC-Glo™ I/II Assay kit (Promega) according to the following experimental method. The test compound diluted with assay buffer (24 mM Tris-HCl (pH 7.5), 1 mM MgCl2, 0.35 mM KCl, 135 mM NaCl, 0.6 mM Glutathione, 0.01% Tween-20) was added to a 384-well plate by each 2 μL. Then, HDAC1 or HDAC6 enzyme solution diluted with assay buffer was added thereto by each 4 μL, and the plate was incubated at room temperature for 60 min. After incubated, HDAC substrate-Developer solution prepared according to Promega protocol attached to the assay kit was added to the 384-well plate by each 2 μL, and the enzyme reaction was started. After reacting at room temperature for 20 min, luminescence level was measured using plate reader Envision (PerkinElmer). The inhibitory activity of each compound was calculated as a relative activity value when luminescence level in wells without enzyme is considered as 100% inhibition.

HDAC9 enzyme = molecular target: T2, HDAC9 enzyme (Homo sapiens, UniProt Q9UKV0); assay: HDAC9 enzyme inhibitory assay (HDAC-Glo class IIa); conditions: 1 μM test compound; wells without enzyme = 100% inhibition; read-out: HDAC9 inhibitory rate (%) (1 μM)
T2 construct: transducing full length HDAC9 gene into Sf-9 insect cells; made in house; host or cells: Sf-9 insect cells
Protocol: HDAC9 Enzyme Inhibitory Assay
Enzyme was prepared by transducing full length HDAC9 gene into Sf-9 insect cells and purifying by Ni-NTA affinity column, and HDAC9 enzyme inhibitory activity was evaluated. Enzymes were used after preserved at −70° C. HDAC9 enzyme inhibitory activity of the test compound was measured using HDAC-Glo class IIa (Promega) according to the following experimental method. The test compound diluted with assay buffer (24 mM Tris-HCl (pH 7.5), 1 mM MgCl2, 0.35 mM KCl, 135 mM NaCl, 0.6 mM Glutathione, 0.01% Tween-20) was added to a 384-well plate by each 2 μL. Then, HDAC9 enzyme solution diluted with assay buffer was added thereto by each 2 μL, and the plate was incubated at room temperature for 60 min. After incubated, HDAC substrate-Developer solution prepared according to Promega protocol was added to the 384-well plate by each 4 μL, and the enzyme reaction was started. After reacting at room temperature for 20 min, luminescence level was measured using plate reader Envision (PerkinElmer). The inhibitory activity of each compound was calculated as a relative activity value when luminescence level in wells without enzyme is considered as 100% inhibition.

HDAC1 enzyme = molecular target: T3, HDAC1 enzyme (Homo sapiens, UniProt Q13547); assay: HDAC1 enzyme inhibitory assay (HDAC-Glo I/II Assay kit); conditions: 1 μM test compound; wells without enzyme = 100% inhibition; read-out: HDAC1 inhibitory rate (%) (1 μM)
T3 construct: transducing full length HDAC1 and HDAC6 genes into Sf-9 insect cells; GST; purchased SignalChem; host or cells: Sf-9 insect cells
Protocol: as §1, §2

T3 sequence (Q13547 whole entry): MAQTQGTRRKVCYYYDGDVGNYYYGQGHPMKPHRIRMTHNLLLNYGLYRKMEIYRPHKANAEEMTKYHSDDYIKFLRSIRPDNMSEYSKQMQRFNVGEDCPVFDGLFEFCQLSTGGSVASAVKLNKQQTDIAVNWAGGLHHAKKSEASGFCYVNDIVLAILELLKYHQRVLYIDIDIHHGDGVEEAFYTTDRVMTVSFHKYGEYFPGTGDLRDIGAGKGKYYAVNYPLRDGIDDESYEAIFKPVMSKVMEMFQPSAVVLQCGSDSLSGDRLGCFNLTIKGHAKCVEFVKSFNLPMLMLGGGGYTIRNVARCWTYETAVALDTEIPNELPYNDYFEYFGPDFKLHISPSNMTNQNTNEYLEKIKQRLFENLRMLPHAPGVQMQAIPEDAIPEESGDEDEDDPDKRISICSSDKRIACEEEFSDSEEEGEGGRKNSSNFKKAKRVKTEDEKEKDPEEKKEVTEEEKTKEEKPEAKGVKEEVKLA
T2 sequence (Q9UKV0 whole entry, species assumed): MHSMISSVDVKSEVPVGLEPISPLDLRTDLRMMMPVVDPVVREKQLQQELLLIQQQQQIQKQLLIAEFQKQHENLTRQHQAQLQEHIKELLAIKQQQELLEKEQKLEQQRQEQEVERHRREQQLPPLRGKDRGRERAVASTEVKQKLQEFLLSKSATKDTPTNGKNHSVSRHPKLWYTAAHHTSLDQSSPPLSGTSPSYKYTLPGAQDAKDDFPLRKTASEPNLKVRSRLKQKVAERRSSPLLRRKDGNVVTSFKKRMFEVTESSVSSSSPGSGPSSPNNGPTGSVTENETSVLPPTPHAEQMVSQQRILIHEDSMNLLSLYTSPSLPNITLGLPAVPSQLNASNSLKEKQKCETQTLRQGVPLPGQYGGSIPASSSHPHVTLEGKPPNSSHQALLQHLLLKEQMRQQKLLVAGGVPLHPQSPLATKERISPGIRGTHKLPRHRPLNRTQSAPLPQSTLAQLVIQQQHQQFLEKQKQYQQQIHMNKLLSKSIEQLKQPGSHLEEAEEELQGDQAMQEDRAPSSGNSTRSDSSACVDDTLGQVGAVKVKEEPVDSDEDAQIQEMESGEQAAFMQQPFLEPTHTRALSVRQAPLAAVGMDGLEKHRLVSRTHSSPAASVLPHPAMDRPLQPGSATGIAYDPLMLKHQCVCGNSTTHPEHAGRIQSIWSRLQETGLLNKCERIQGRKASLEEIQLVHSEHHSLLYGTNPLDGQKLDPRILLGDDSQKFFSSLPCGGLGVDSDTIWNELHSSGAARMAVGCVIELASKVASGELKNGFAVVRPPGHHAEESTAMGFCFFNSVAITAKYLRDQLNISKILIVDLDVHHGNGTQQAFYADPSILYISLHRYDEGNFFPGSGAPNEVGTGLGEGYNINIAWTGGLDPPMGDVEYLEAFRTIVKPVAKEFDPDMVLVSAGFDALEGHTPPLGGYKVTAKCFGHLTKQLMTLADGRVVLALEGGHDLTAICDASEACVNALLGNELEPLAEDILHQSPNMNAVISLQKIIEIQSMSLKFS

inhibition at 1 µM (HDAC6 enzyme) [%] | inhibition at 1 µM (HDAC9 enzyme) [%] | inhibition at 1 µM (HDAC1 enzyme) [%] | SMILES
95 | 66 | 16 | COc1cc(F)ccc1[C@H](C)N1Cc2ccc(-c3noc(C(F)(F)F)n3)cc2C1=O [Example 20, 2-((S)-1-(4-fluoro-2-methoxyphenyl)ethyl)-6-(5-(trifluoromethyl)-1,2,4-oxadiazol-yl)isoindolin-1-one]
95 | 85 | 20 | C[C@@H](c1cccc(F)c1)N1Cc2ccc(-c3noc(C(F)(F)F)n3)cc2C1=O [Example 16, 2-((1S)-1-(3-fluorophenyl)ethyl)-6-(5-(trifluoromethyl)-1,2,4-oxadiazol-3-yl)isoindolin-1-one]
97 | 79 | 16 | CC(c1ccccn1)N1Cc2ccc(-c3noc(C(F)(F)F)n3)cc2C1=O (stereo not drawn) [Example 34]
28 | 52 | 15 | O=C1c2cc(-c3noc(C(F)(F)F)n3)ccc2CN1Cc1cccc(Oc2ccccc2)c1 [Example 10, 2-(3-phenoxybenzyl)-6-(5-(trifluoromethyl)-1,2,4-oxadiazol-3-yl)isoindolin-1-one]
97 | 61 | 6 | CN(c1ncccc1CN1Cc2ccc(-c3noc(C(F)(F)F)n3)cc2C1=O)S(C)(=O)=O [Example 35, N-methyl-N-(3-((1-oxo-6-(5-(trifluoromethyl)-1,2,4-oxadiazol-3-yl)-1,3-dihydro-2H-isoindol-2-yl)methyl)pyridin-2-yl)methanesulfonamide]
100 | 92 | 57 | CC(c1ccccc1)N1Cc2ncc(-c3noc(C(F)(F)F)n3)cc2C1=O (stereo not drawn) [Example 2, 6-(1-phenylethyl)-3-(5-(trifluoromethyl)-1,2,4-oxadiazol-3-yl)-6,7-dihydro-5H-pyrrolo[3,4-b]pyridin-5-one]
94 | 92 | 40 | COc1cc(CN2Cc3ccc(-c4noc(C(F)(F)F)n4)cc3C2=O)ccc1OCC1CCCO1 (stereo not drawn) [Example 31, 2-(3-methoxy-4-(tetrahydrofuran-2-ylmethoxy)benzyl)-6-(5-(trifluoromethyl)-1,2,4-oxadiazol-3-yl)isoindolin-1-one]
95 | 79 | 15 | C[C@@H](c1ccccc1F)N1Cc2ccc(-c3noc(C(F)(F)F)n3)cc2C1=O [Example 15, 2-((1S)-1-(2-fluorophenyl)ethyl)-6-(5-(trifluoromethy)-1,2,4-oxadiazol-3-yl)isoindolin-1-one]
102 | 82 | 24 | O=C1c2cc(-c3noc(C(F)(F)F)n3)ccc2CN1Cc1ccccc1 [Example 6, 2-benzyl-6-(5-(trifluoromethyl)-1,2,4-oxadiazol-3-yl)isoindolin-1-one]
98 | 81 | 15 | O=C1c2cc(-c3noc(C(F)(F)F)n3)ccc2CN1Cc1nccs1 [Example 36, 2-(1,3-thiazol-2-ylmethyl)-6-(5-(trifluoromethyl)-1,2,4-oxadiazol-3-yl)isoindolin-1-one]
95 | 78 | 17 | C[C@H](c1ccccc1)N1Cc2ccc(-c3noc(C(F)(F)F)n3)cc2C1=O [Example 7, 2-((1R)-1-phenylethyl)-6-(5-(trifluoromethyl)-1,2,4-oxadiazol-3-yl)isoindolin-1-one]
99 | 28 | 4 | C[C@H](c1cccc2ccccc12)N1Cc2ccc(-c3noc(C(F)(F)F)n3)cc2C1=O [Example 23, 2-((1R)-1-(1-naphthyl)ethyl)-6-(5-(trifluoromethyl)-1,2,4-oxadiazol-3-yl)isoindolin-1-one]
99 | 87 | 29 | COc1cccc([C@H](C)N2Cc3ccc(-c4noc(C(F)(F)F)n4)cc3C2=O)c1 [Example 19, 2-((1S)-1-(3-methoxyphenyl)ethyl)-6-(5-(trifluoromethyl)-1,2,4-oxadiazol-3-yl)isoindolin-1-one]
99 | 90 | 55 | C[C@H](c1ccccc1)N1Cc2ncc(-c3noc(C(F)(F)F)n3)cc2C1=O [Example 39, 6-((1R)-1-phenylethyl)-3-(5-(trifluoromethyl)-1,2,4-oxadiazol-3-yl)-6,7-dihydro-5H-pyrrolo[3,4-b]pyridin-5-one]
98 | 77 | 19 | COc1ncccc1CN1Cc2ccc(-c3noc(C(F)(F)F)n3)cc2C1=O [Example 33, 2-((2-methoxypyridin-3-yl)methyl)-6-(5-(trifluoromethyl)-1,2,4-oxadiazol-3-yl)isoindolin-1-one]
95 | 74 | 12 | C[C@@H](c1ccc(F)cc1F)N1Cc2ccc(-c3noc(C(F)(F)F)n3)cc2C1=O [Example 17, 2-((1S)-1-(2,4-difluorophenyl)ethyl)-6-(5-(trifluoromethyl)-1,2,4-oxadiazol-3-yl)isoindolin-1-one]
97 | 93 | 52 | C[C@@H](c1ccccc1)N1Cc2ncc(-c3noc(C(F)(F)F)n3)cc2C1=O [Example 40, 6-((1S)-1-phenylethyl)-3-(5-(trifluoromethyl)-1,2,4-oxadiazol-3-yl)-6,7-dihydro-5H-pyrrolo[3,4-b]pyridin-5-one]
94 | 83 | 30 | CS(=O)(=O)c1ccc(CN2Cc3ccc(-c4noc(C(F)(F)F)n4)cc3C2=O)cc1 [Example 30, 2-(4-(methylsulfonyl)benzyl)-6-(5-(trifluoromethyl)-1,2,4-oxadiazol-3-yl)isoindolin-1-one]
